“Also recorded” adds a separate entry of the source. Read-outs that look alike come from different tables or passages of the source.
Test system: HLA A2
Type: binding, human
Conditions: for Mean 1 / Mean 2 / binding to HLA A2 (in words): RMA-S/A2 cells; for Mean 1: peptide and only anti-mouse secondary antibody; for Mean 1 / Mean 2: FACS mean; for Mean 2: peptide, anti-A2 Mab BB7.2 and secondary antibody; for binding to HLA A2 (in words): in vitro binding assay

Sequence | High - B | Δ Mean | Mean 1 (100 μM peptide) | Mean 2 (100 μM peptide) | binding to HLA A2 (in words) | Mean 1 (10 μM peptide) | Mean 2 (10 μM peptide) | Mean 1 (1 μM peptide) | Mean 2 (1 μM peptide) | ΔMean at high concentrations of peptide (in words) (high peptide concentrations, non-homogeneous fluorescent signal, most likely non-specific effects)
FLQRGESFV [CH30] | 89 | 243 | 155 | 398 | bind to HLA A2 |  |  |  |  | 
NLLKRWQFV [CH38] | 73 | 227 | 170 | 397 | bind to HLA A2 |  |  |  |  | 
KLWEWLGYL [CH32] | 63 | 217 |  |  | bind to HLA A2 | 161 | 378 |  |  | 
FLTLAWWFI [CH8] | 82 | 328 |  |  | bind to HLA A2 |  |  | 204 | 532 | 
KMSHFQQAL [CH49] | 23 | 183 | 134 | 317 |  |  |  |  |  | 
VLNLFFSAL (listed as Chlamydia pneumoniae) [CH3] | 0 | 224 |  |  |  |  |  | 195 | 419 | Very low ΔMean values
KVLLGQEWV [CH42] | 40 | 200 | 136 | 336 | bind to HLA A2 |  |  |  |  | 
YLLDFRWPL [CH37] | 84 | 238 |  |  | bind to HLA A2 | 164 | 402 |  |  | 
ILQEAEQMV [CH17] | 140 | 386 | 185 | 571 | bind to HLA A2 |  |  |  |  | 
ALWGHNVLL (listed as Chlamydia pneumoniae) [CH55] | 98 | 258 | 153 | 411 | bind to HLA A2; also recorded: positive in the binding assay |  |  |  |  | 
WLLRDDWLL [CH31] | 89 | 243 | 165 | 408 | bind to HLA A2 |  |  |  |  | 
SILELLQFV [CH5] | 71 | 298 |  |  | bind to HLA A2 | 179 | 477 |  |  | 
